# Experimental data published in patent publication US4920129A, “Anti-ulcerative imidazopyridine compounds” (Fujisawa Pharmaceutical Company, Ltd., priority 1987, dated 1990).
# Experiments:
# [1] = test system: gastrin-stimulated acid secretion; assay: Effect on gastrin-stimulated acid secretion in Heidenhain pouch dogs; type: in vivo; conditions: 3.2 mg/kg, oral, tetragastrin 10 μg/kg/hr infusion, gastric juice collected 3 hr after drug
# Experimental: EFFECT ON GASTRIN-STIMULATED ACID SECRETION IN HEIDENHAIN POUCH DOGS
# Dogs equipped with Heidenhain pouches were placed on tables and restrained minimally in pavlov slings. Gastrin(tetragastrin) in 0.9% saline was continuously infused through the cephalic vein at a dose of 10 μg/kg/hr over a 5- to 6-hr period in a volume of 0.1 ml/kg/min. After acid secretion had reached a plateau (usually within 2 hr), drug was given orally in a volume of 1 ml/kg. Gastric juice was collected at 15 min intervals for 1 hr before and for 3 hr after drug administration. The volume of each sample was determined, and an aliquot was titrated to pH 7.0 with 0.1M NaOH. Acid output was expressed as μEq H^+ /15 min. The effect of drug was described as percent drug-induced change in acid secretion.
# stress ulcer = assay: Inhibition on stress ulcer (water-bath immobilization); type: in vivo, Sprague-Dawley rats; conditions: 32 mg/kg, oral, just before immobilization; 7 hours; rats
# Experimental: INHIBITION ON STRESS ULCER
# Five Sprague-Dawley rats weighing about 200 g were used per group. Each animal was immobilized in a small cage and put in a water bath allowing to respire. The temperature of the water bath kept at 22° C. The test compound was administered orally just before the immobilization. Seven hours later, the animals were sacrificed and their stomachs were removed. The stomach was then fixed with 2% formalin. The area of ulcers was measured for each animal. The mean area (mm^2) in the medicated animals was compared with that in the control animals.
structure (smiles),measurement,setting,value
"C#CCc1c(C)nc2c(NCc3c(C)cccc3NC(=O)OC)cccn12 [(1), 8-(2-Methyl-6-methoxycarbonylaminobenzylamino)-3-(2-propynyl)-2-methylimidazo[1,2-a]pyridine]",Maximum inhibition % (acid secretion),[1],100%
same,Inhibition % (area of ulcers),stress ulcer,100%
